Laboratory results taken from patent publication US20250177382A1, “NEK7 INHIBITORS” (Halia Therapeutics, Inc., priority 2021, published 2025).

Key:
[1] = test system: IL-1β release in THP-1 cells; experiment: IL-1β release assay; format: cell-based; conditions: Homo sapiens; PMA-differentiated THP-1 cells, LPS + nigericin, cleaved IL-1β by JESS
Description: Approximately 1.5 million THP-1 cells were plated in each well of a 6-well TC plate and incubated with 40 nM PMA in RPMI (10% FBS, 1% Penstrep) for 24 hours. The media was then removed and cells were rested in RPMI (10% FBS, 1% Penstrep) for 24 hours after which time the media was removed and cells were pre-treated for 2 hours with various concentrations of compounds of interest (typically serial 3-fold dilution in RPMI+5% FBS, concentrations ranging from 1 μM to 0.5 nM) in RPMI (5% FBS). The media was again removed and cells were incubated with 250 ng/mL LPS and compounds of interest (concentrations as above) in RMPI (5% FBS) for 2 hours. The media was removed for a last time and cells were incubated with 20 μM nigericin and compounds of interest (concentrations as above) in Opti-MEM for 30 minutes. Cell media was then collected and the amount of cleaved IL-1β was determined using a JESS instrument (Protein Simple) and standard protocols. Cleaved Il-1β antibody was obtained from Cell Signaling (catalogue #83186S) and was used at 1:20 dilution in antibody diluent 2. Protein Simple 1× anti-Rabbit HRP secondary antibody was used along with Protein Simple luminol and peroxide for chemiluminescent detection. Primary antibody incubation time was increased from 30 minutes to 60 minutes.
(§1) Representative compounds were tested for inhibitory activity against NEK7 and IL-1β release according to the procedures described above.

[2] = molecular target: T1, full-length recombinant human NEK7 (Homo sapiens, UniProt Q8TDX7); experiment: NEK7 enzymatic assay; format: biochemical; conditions: casein substrate, [32P]-ATP, radiometric P81 filter assay
T1 construct: full-length recombinant human NEK7; GST (N); purchased SignalChem N09-10G; host or cells: Sf9 insect cells (baculovirus)
T1 sequence (Q8TDX7 whole entry): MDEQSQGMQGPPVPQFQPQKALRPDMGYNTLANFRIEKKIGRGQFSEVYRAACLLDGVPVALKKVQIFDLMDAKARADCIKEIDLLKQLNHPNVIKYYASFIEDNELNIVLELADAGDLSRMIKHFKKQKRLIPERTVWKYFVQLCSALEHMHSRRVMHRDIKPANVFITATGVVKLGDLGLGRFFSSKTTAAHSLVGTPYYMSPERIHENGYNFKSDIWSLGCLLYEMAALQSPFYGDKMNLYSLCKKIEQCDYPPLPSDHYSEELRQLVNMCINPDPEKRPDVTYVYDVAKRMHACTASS
Description: Casein substrate (from bovine milk, hydrolyzed and partially dephosphorylated mixture of α, β, and κ caseins, obtained from Sigma Aldrich, catalogue #C4765, diluted in distilled water to a final concentration of 1 mg/mL, assay concentration 20 μM) and full-length recombinant human NEK7 (expressed by baculovirus in Sf9 insect cells using a N-terminal GST tag, obtained from SignalChem, catalogue #N09-10G, […], assay concentration 70 nM) were mixed in assay buffer (20 mM Hepes pH 7.5, 10 mM MgCl2, 1 mM EGTA, 0.02% Brij35, 0.02 mg/mL BSA, 0.1 mM […], 2 mM DTT, 1% DMSO). Compounds of interest (in DMSO, serial 3-fold dilution from 10 μM to 0.5 nM) or control (1% DMSO) were dispensed into the kinase reaction mixture by Acoustic technology (Echo550; nanoliter range). After incubation at room temperature for 20 minutes, the kinase reaction was initiated by addition of [^32P]-ATP (Specific activity 10 μUCi/μl) and the mixture was incubated at room temperature for 2 hours. The reaction was then stopped by spotting the reaction mixture on strips of phosphocellulose P81 paper. Following washing, the radioactivity of the P81 paper was measured and kinase activity data were expressed as the percent remaining kinase activity in test samples compared to vehicle (dimethyl sulfoxide) reactions. IC50 values and curve fits were obtained using Prism (GraphPad Software).
as §1

Compound `CN1CCN(Cc2ccc(NC(=O)Nc3ccc(Oc4ccnc5[nH]cc(Cl)c45)cc3F)cc2C(F)(F)F)CC1` [Example I-1, 1-(4-((3-chloro-1H-pyrrolo[2,3-b]pyridin-4-yl)oxy)-2-fluorophenyl)-3-(4-((4-methylpiperazin-1-yl)methyl)-3-(trifluoromethyl)phenyl)urea] has an IC50 [1] of less than 50 nM.
`CN1CCC(Oc2ncc(NC(=O)Nc3ccc(Oc4ccnc5[nH]cc(Cl)c45)cc3F)cc2C(F)(F)F)CC1` [Example I-58, 1-(4-((3-chloro-1H-pyrrolo[2,3-b]pyridin-4-yl)oxy)-2-fluorophenyl)-3-(6-((1-methylpiperidin-4-yl)oxy)-5-(trifluoromethyl)pyridin-3-yl)urea] showed an IC50 [2] of 200 to 500 nM and an IC50 [1] of 50 to 250 nM.
`CC(=O)N1CCC(Oc2ccc(NC(=O)Nc3ccc(Oc4ccnc5[nH]cc(Cl)c45)cc3F)cc2C(F)(F)F)CC1` [Example I-59, 1-(4-((1-acetylpiperidin-4-yl)oxy)-3-(trifluoromethyl)phenyl)-3-(4-((3-chloro-1H-pyrrolo[2,3-b]pyridin-4-yl)oxy)-2-fluorophenyl)urea] gave an IC50 [2] greater than 2000 nM and an IC50 [1] of 250 to 1000 nM.
For `CN1CCC(=Cc2ccc(NC(=O)Nc3ccc(Oc4ccnc5[nH]cc(Cl)c45)cc3F)cc2C(F)(F)F)CC1` [Example I-40, 1-(4-((3-chloro-1H-pyrrolo[2,3-b]pyridin-4-yl)oxy)-2-fluorophenyl)-3-(4-((1-methylpiperidin-4-ylidene)methyl)-3-(trifluoromethyl)phenyl)urea], the IC50 [2] was 500 to 2000 nM and the IC50 [1] was less than 50 nM.
In the case of `CN1CCN(Cc2ccc(NC(=O)Nc3ccc(Oc4ccnc5[nH]cc(C6CC6)c45)cc3F)cc2C(F)(F)F)CC1` [Example I-7, 1-(4-((3-cyclopropyl-1H-pyrrolo[2,3-b]pyridin-4-yl)oxy)-2-fluorophenyl)-3-(4-((4-methylpiperazin-1-yl)methyl)-3-(trifluoromethyl)phenyl)urea], the IC50 [1] is reported as 50 to 250 nM.
With `CN1CCC(Oc2ccc(NC(=O)Nc3ccc(Oc4ccnc5[nH]cc(Cl)c45)cc3F)cc2C(F)(F)F)CC1` [Example I-39, 1-(4-((3-chloro-1H-pyrrolo[2,3-b]pyridin-4-yl)oxy)-2-fluorophenyl)-3-(4-((1-methylpiperidin-4-yl)oxy)-3-(trifluoromethyl)phenyl)urea] the IC50 [2] was 200 to 500 nM and the IC50 [1] was 50 to 250 nM.
`Cc1c[nH]c2nccc(Oc3ccc(NC(=O)Nc4ccc(CN5CCN(C)CC5)c(C(F)(F)F)c4)c(F)c3)c12` [Example I-36, 1-(2-fluoro-4-((3-methyl-1H-pyrrolo[2,3-b]pyridin-4-yl)oxy)phenyl)-3-(4-((4-methylpiperazin-1-yl)methyl)-3-(trifluoromethyl)phenyl)urea] was tested, and the IC50 [2] was 200 to 500 nM and the IC50 [1] was 50 to 250 nM.
`CN1CCN(Cc2ccc(NC(=O)Nc3ccc(Oc4ccnc5[nH]cc(Cl)c45)cn3)cc2C(F)(F)F)CC1` [Example I-24, 1-(5-((3-chloro-1H-pyrrolo[2,3-b]pyridin-4-yl)oxy)pyridin-2-yl)-3-(4-((4-methylpiperazin-1-yl)methyl)-3-(trifluoromethyl)phenyl)urea] was tested, and the IC50 [2] was less than 200 nM and the IC50 [1] was less than 50 nM.
For `Cc1[nH]c2nccc(Oc3ccc(NC(=O)Nc4ccc(CN5CCN(C)CC5)c(C(F)(F)F)c4)c(F)c3)c2c1Cl` [Example I-11, 1-(4-((3-chloro-2-methyl-1H-pyrrolo[2,3-b]pyridin-4-yl)oxy)-2-fluorophenyl)-3-(4-((4-methylpiperazin-1-yl)methyl)-3-(trifluoromethyl)phenyl)urea], the IC50 [1] was less than 50 nM.
